Measured values from article PMC12439480, “Dimeric CCK2R radiotheranostic tracers synergize with mTOR inhibition for enhanced tumor therapy” (Theranostics, 2025).
Numbered stars: 1 amine (or outer) side, 2 acyl side, 3 side chain; on linkers, the order of the positions; unused ones are H or OH. Square brackets hold non-standard residues; d marks the D form. Peptide text beside a SMILES is read from it. * marks the point of attachment. DOTA = O=C(O)CN1CCN(CC(=O)O)CCN(CC(=O)*)CCN(CC(=O)O)CC1; d(γGlu) = O=C(O)[C@@H](CCC(=O)[*:2])N[*:1]; 1Nal = N[C@@H](Cc1cccc2ccccc12)C(=O)O; NMeNle = CCCC[C@H](NC)C(=O)O; PEG4 = NCCOCCOCCOCCOCCC(=O)O

How the values were obtained:
[1] = format: physicochemical; conditions: pH 7.4
Description: The hydrophilicity of [^68Ga]Ga-DOTA-CCK2R-dimer and [^68Ga]Ga-DOTA-CCK-66 was assessed by determining their partition coefficients (Log D7.4) in a phosphate-buffered saline (PBS; pH 7.4)/n-octanol (1:1, v/v) system. Briefly, ~37 kBq of each radiotracer was mixed with 2 mL of the biphasic system, vortexed for 5 min, and centrifuged at 15,000 × g for 5 min. The radioactivity in 100 μL aliquots of each phase was quantified using a γ-counter (n = 5).

in vivo [2] = assay: in vivo; set-up: species or system BALB/c nude mice; conditions: female, BALB/c nude, mouse, iv, total radioactivity
Description: For the micro-positron emission tomography/computed tomography (microPET/CT) imaging study, BALB/c nude mice bearing AR42J tumors (detailed in Supplementary Methods Section S3: Mouse Models) were intravenously injected with 3.7 MBq of [^68Ga]Ga-DOTA-CCK2R-dimer (≈ 120 pmol) or [^68Ga]Ga-DOTA-CCK-66 (≈ 210 pmol) (dissolved in 200 μL of saline; n = 3/group), and microPET/CT imaging was performed at 30, 60, and 120 min post-injection. The mice were anesthetized via inhalation of an isoflurane mixture approximately 5 min before each PET/CT acquisition began. To confirm tumor-specific radiopharmaceutical uptake, blocking experiments were conducted at the 1-h time point of imaging by coinjecting the mice with the radiopharmaceutical and a 400-fold excess of the lead compound.
(§1) All animal studies were approved by the Ethics Committee of Fudan University
(§2) Shanghai Cancer Center (No. FUSCC-IACUC- S2023- 0003). Five-week-old female
(§3) BALB/c nude mice were purchased from Shanghai SLAC Laboratory Animal
(§4) Company. To establish cell-derived xenograft (CDX) models, 1 × 10⁶ AR42J cells
(§5) (100 μL) were subcutaneously inoculated into the right shoulder of each mouse. […]

in vivo [3] = assay: in vivo; set-up: species or system BALB/c nude mice; conditions: mouse; for tissue to tissue ratio at 0.5 h / tissue to tissue ratio at 1 h / tissue to tissue ratio at 2 h: female, BALB/c nude, iv, 3.7 MBq, total radioactivity
Description: To complement the imaging studies, biodistribution experiments were performed. AR42J tumor-bearing mice were intravenously injected with 3.7 MBq of [^68Ga]Ga-DOTA-CCK2R-dimer (≈ 120 pmol) or [^68Ga]Ga-DOTA-CCK-66 (≈ 210 pmol) (dissolved in 200 μL of saline; n = 3/group). The mice were sacrificed at 30, 60, and 120 min post-injection, and the tissues of interest were excised, weighed, and analyzed for radioactivity using a γ-counter. For blocking studies, a 400-fold excess of the lead compound was co-administered, and the mice were sacrificed at 1 h post-injection.
as §1, §2, §3, §4, §5

[4] = Tumor-to-Large intestine ratio (T/B)
[5] = Tumor-to-Small intestine ratio (T/B)

logD [1]: -3.03 ± 0.03
tissue uptake at 0.5 h (in vivo [2]; 3.7 MBq): 16 ± 2.18 %ID/g
tissue uptake at 1 h (in vivo [2]; 3.7 MBq): 19.5 ± 2.95 %ID/g
tissue uptake at 2 h (in vivo [2]; 3.7 MBq): 19.6 ± 3.35 %ID/g
tissue uptake at 1 h (in vivo [2]): 7.9 ± 1.35 %ID/g
tissue to tissue ratio at 0.5 h (in vivo [3]; Tumor-to-Bladder ratio (T/B)): 1.95 ± 0.96
tissue to tissue ratio at 1 h (in vivo [3]; Tumor-to-Bladder ratio (T/B)): 4.41 ± 1.16
tissue to tissue ratio at 2 h (in vivo [3]; Tumor-to-Bladder ratio (T/B)): 7.5 ± 2.91
tissue to tissue ratio at 0.5 h (in vivo [3]; Tumor-to-Blood ratio (T/B)): 2.48 ± 0.27
tissue to tissue ratio at 1 h (in vivo [3]; Tumor-to-Blood ratio (T/B)): 6.36 ± 1.3
tissue to tissue ratio at 2 h (in vivo [3]; Tumor-to-Blood ratio (T/B)): 18.1 ± 14.9
tissue to tissue ratio at 0.5 h (in vivo [3]; Tumor-to-Bone ratio (T/B)): 29.9 ± 14.1
tissue to tissue ratio at 1 h (in vivo [3]; Tumor-to-Bone ratio (T/B)): 34.9 ± 29.4
tissue to tissue ratio at 2 h (in vivo [3]; Tumor-to-Bone ratio (T/B)): 98 ± 19.9
tissue to tissue ratio at 0.5 h (in vivo [3]; Tumor-to-Brain ratio (T/B)): 72.8 ± 22.6
tissue to tissue ratio at 1 h (in vivo [3]; Tumor-to-Brain ratio (T/B)): 91.4 ± 5.94
tissue to tissue ratio at 2 h (in vivo [3]; Tumor-to-Brain ratio (T/B)): 141 ± 66.3
tissue to tissue ratio at 0.5 h (in vivo [3]; Tumor-to-Heart ratio (T/B)): 10.9 ± 1.72
tissue to tissue ratio at 1 h (in vivo [3]; Tumor-to-Heart ratio (T/B)): 8.93 ± 4.2
tissue to tissue ratio at 2 h (in vivo [3]; Tumor-to-Heart ratio (T/B)): 33.2 ± 30.2
tissue to tissue ratio at 0.5 h (in vivo [3]; Tumor-to-Kidney ratio (T/B)): 1.8 ± 0.2
tissue to tissue ratio at 1 h (in vivo [3]; Tumor-to-Kidney ratio (T/B)): 1.1 ± 0.47
tissue to tissue ratio at 2 h (in vivo [3]; Tumor-to-Kidney ratio (T/B)): 1.67 ± 0.79
tissue to tissue ratio at 0.5 h (in vivo [3]; [4]): 5.91 ± 1.81
tissue to tissue ratio at 1 h (in vivo [3]; [4]): 13.3 ± 6.96
tissue to tissue ratio at 2 h (in vivo [3]; [4]): 26.2 ± 5.5
tissue to tissue ratio at 0.5 h (in vivo [3]; Tumor-to-Liver ratio (T/B)): 4.12 ± 0.63
tissue to tissue ratio at 1 h (in vivo [3]; Tumor-to-Liver ratio (T/B)): 4.3 ± 0.38
tissue to tissue ratio at 2 h (in vivo [3]; Tumor-to-Liver ratio (T/B)): 13.2 ± 7.75
tissue to tissue ratio at 0.5 h (in vivo [3]; Tumor-to-Lung ratio (T/B)): 3.22 ± 0.56
tissue to tissue ratio at 1 h (in vivo [3]; Tumor-to-Lung ratio (T/B)): 7.32 ± 5.81
tissue to tissue ratio at 2 h (in vivo [3]; Tumor-to-Lung ratio (T/B)): 11.7 ± 2.81
tissue to tissue ratio at 0.5 h (in vivo [3]; Tumor-to-Muscle ratio (T/M)): 6.69 ± 2.78
tissue to tissue ratio at 1 h (in vivo [3]; Tumor-to-Muscle ratio (T/M)): 10.2 ± 1.41
tissue to tissue ratio at 2 h (in vivo [3]; Tumor-to-Muscle ratio (T/M)): 15.2 ± 6.94
tissue to tissue ratio at 0.5 h (in vivo [3]; [5]): 5.83 ± 2.57
tissue to tissue ratio at 1 h (in vivo [3]; [5]): 7.43 ± 1.49
tissue to tissue ratio at 2 h (in vivo [3]; [5]): 25.7 ± 17.9
tissue to tissue ratio at 0.5 h (in vivo [3]; Tumor-to-Spleen ratio (T/B)): 4.46 ± 1.21
tissue to tissue ratio at 1 h (in vivo [3]; Tumor-to-Spleen ratio (T/B)): 7 ± 2.74
tissue to tissue ratio at 2 h (in vivo [3]; Tumor-to-Spleen ratio (T/B)): 24.9 ± 10.9
tissue to tissue ratio at 0.5 h (in vivo [3]; Tumor-to-Stomach ratio (T/B)): 4.5 ± 1.83
tissue to tissue ratio at 1 h (in vivo [3]; Tumor-to-Stomach ratio (T/B)): 5.06 ± 2.32
tissue to tissue ratio at 2 h (in vivo [3]; Tumor-to-Stomach ratio (T/B)): 6 ± 1.93
tissue uptake at 0.5 h (in vivo [3]; Bladder uptake): 1.9 ± 1.13 %ID/g
tissue uptake at 1 h (in vivo [3]; Bladder uptake): 1.59 ± 0.47 %ID/g
tissue uptake at 2 h (in vivo [3]; Bladder uptake): 1.37 ± 0.43 %ID/g
tissue uptake at 0.5 h (in vivo [3]; Blood uptake): 1.22 ± 0.15 %ID/g
tissue uptake at 2 h (in vivo [3]; Blood uptake): 0.69 ± 0.3 %ID/g
tissue uptake at 0.5 h (in vivo [3]; Bone uptake): 0.12 ± 0.05 %ID/g
tissue uptake at 2 h (in vivo [3]; Bone uptake): 0.1 ± 0.04 %ID/g
tissue uptake at 0.5 h (in vivo [3]; Brain uptake): 0.03 ± 0.01 %ID/g
tissue uptake at 2 h (in vivo [3]; Brain uptake): 0.07 ± 0.01 %ID/g
tissue uptake at 0.5 h (in vivo [3]; Heart uptake): 0.28 ± 0.04 %ID/g
tissue uptake at 2 h (in vivo [3]; Heart uptake): 0.48 ± 0.31 %ID/g
tissue uptake at 0.5 h (in vivo [3]; Kidney uptake): 1.68 ± 0.19 %ID/g
tissue uptake at 1 h (in vivo [3]; Kidney uptake): 7.52 ± 1.95 %ID/g
tissue uptake at 2 h (in vivo [3]; Kidney uptake): 6.4 ± 2.54 %ID/g
tissue uptake at 0.5 h (in vivo [3]; Large intestine uptake): 0.55 ± 0.19 %ID/g
tissue uptake at 2 h (in vivo [3]; Large intestine uptake): 0.37 ± 0.06 %ID/g
tissue uptake at 0.5 h (in vivo [3]; Liver uptake): 0.74 ± 0.1 %ID/g
tissue uptake at 1 h (in vivo [3]; Liver uptake): 1.57 ± 0.22 %ID/g
tissue uptake at 2 h (in vivo [3]; Liver uptake): 0.54 ± 0.17 %ID/g
tissue uptake at 0.5 h (in vivo [3]; Lung uptake): 0.95 ± 0.14 %ID/g
tissue uptake at 1 h (in vivo [3]; Lung uptake): 1.25 ± 0.6 %ID/g
tissue uptake at 2 h (in vivo [3]; Lung uptake): 0.87 ± 0.31 %ID/g
tissue uptake at 0.5 h (in vivo [3]; Muscle uptake): 0.52 ± 0.27 %ID/g
tissue uptake at 2 h (in vivo [3]; Muscle uptake): 0.72 ± 0.36 %ID/g
tissue uptake at 0.5 h (in vivo [3]; Small intestine uptake): 0.57 ± 0.21 %ID/g
tissue uptake at 2 h (in vivo [3]; Small intestine uptake): 0.5 ± 0.27 %ID/g
tissue uptake at 0.5 h (in vivo [3]; Spleen uptake): 0.71 ± 0.2 %ID/g
tissue uptake at 2 h (in vivo [3]; Spleen uptake): 0.45 ± 0.23 %ID/g
tissue uptake at 0.5 h (in vivo [3]; Stomach uptake): 0.74 ± 0.27 %ID/g
tissue uptake at 2 h (in vivo [3]; Stomach uptake): 1.63 ± 0.27 %ID/g
tissue uptake at 0.5 h (in vivo [3]; Tumor uptake): 3 ± 0.63 %ID/g
tissue uptake at 2 h (in vivo [3]; Tumor uptake): 9.53 ± 2.38 %ID/g
SMILES: CCCC[C@@H](C(=O)N[C@@H](CC(=O)O)C(=O)N[C@@H](Cc1cccc2ccccc12)C(N)=O)N(C)C(=O)[C@H](Cc1c[nH]c2ccccc12)NC(=O)CCOCCOCCOCCOCCNC(=O)CC[C@@H](NC(=O)CN1CCN(CC(=O)O)CCN(CC(=O)O)CCN(CC(=O)O)CC1)C(=O)O [[68Ga]Ga-DOTA-CCK-66, metal not drawn, reference compound] ({DOTA-d(γGlu)-PEG4}-W[NMeNle]D[1Nal]-NH2)
